Measurements taken from patent publication US20250215030A1, “STAT MODULATORS AND USES THEREOF” (Recludix Pharma, Inc., priority 2022, published 2025).

Tests used:
pSTAT6 (pY641-STAT6) = target: T1, pSTAT6 (pY641-STAT6) (Homo sapiens, UniProt P42226); assay: MSD-pSTAT-PBMC Assay (pSTAT6, IL-4 stimulated); format: cell-based; conditions: compound 3 hrs, then 1 ng/mL IL-4 for 10 min
T1 construct: host or cells: cryopreserved PBMC
T1 sequence (P42226 1-847): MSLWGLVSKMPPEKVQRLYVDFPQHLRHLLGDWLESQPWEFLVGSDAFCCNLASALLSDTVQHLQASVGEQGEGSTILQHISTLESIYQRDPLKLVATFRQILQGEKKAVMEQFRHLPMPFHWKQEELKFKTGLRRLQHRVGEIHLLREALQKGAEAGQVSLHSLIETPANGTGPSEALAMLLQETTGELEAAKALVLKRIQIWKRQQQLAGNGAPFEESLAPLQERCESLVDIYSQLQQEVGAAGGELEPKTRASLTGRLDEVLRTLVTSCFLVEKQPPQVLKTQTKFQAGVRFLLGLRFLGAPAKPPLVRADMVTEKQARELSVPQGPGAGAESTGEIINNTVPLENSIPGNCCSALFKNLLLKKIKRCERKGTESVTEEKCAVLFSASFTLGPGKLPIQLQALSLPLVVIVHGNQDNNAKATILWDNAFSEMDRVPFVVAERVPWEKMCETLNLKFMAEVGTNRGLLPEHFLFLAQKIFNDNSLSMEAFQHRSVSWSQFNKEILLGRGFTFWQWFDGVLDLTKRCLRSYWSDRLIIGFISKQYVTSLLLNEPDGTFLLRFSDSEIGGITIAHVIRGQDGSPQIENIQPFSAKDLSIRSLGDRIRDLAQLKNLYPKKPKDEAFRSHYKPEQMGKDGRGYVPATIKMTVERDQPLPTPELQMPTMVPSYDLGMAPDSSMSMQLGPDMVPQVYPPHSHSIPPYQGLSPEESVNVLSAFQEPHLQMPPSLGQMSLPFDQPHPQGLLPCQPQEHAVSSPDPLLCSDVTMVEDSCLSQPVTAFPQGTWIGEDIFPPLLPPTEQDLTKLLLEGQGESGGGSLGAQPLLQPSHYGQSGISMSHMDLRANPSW
Description: Cryopreserved Peripheral Blood Mononuclear Cells (PBMC) are from AllCells. Recombinant Human IL-4 and IL-6 are from Peprotech. Mouse monoclonal anti-STAT3 antibody, rabbit monoclonal anti-pY705-STAT3 antibody, rabbit monoclonal Anti-pY641-STAT6 antibody, and lysis buffer are from Cell Signaling Technology (CST). Mouse monoclonal anti-STAT6 antibody is from BioLegend. Assay plates, blocker, and anti-rabbit secondary antibody are from Meso Scale Discovery (MSD).
Cryopreserved PBMCs were thawed out and allowed to recover overnight in IMDM+10% heat-inactivated FBS prior to plating 50,000 (STAT3) or 25,000 (STAT6) cells per well in 96-well U-bottom tissue culture plates. Cells were treated with compound for 3 hrs, then stimulated with 10 ng/mL IL-6 (STAT3) or 1 ng/mL IL-4 (STAT6) for 10 min. Cells were then spun down and washed with ice-cold PBS prior to lysing the cell pellet with 1× lysis buffer (CST) with 1× HALT protease and phosphatase inhibitor cocktail (Thermo). Lysates were transferred to and incubated overnight at 4° C. with shaking in QuickPlex 96-well high bind assay plates (MSD) pre-coated overnight with 30 μL per well of 0.6 μg/mL mouse monoclonal anti-STAT3 antibody (STAT3) or 2 μg/mL mouse monoclonal anti-STAT6 antibody (STAT6) in 1×PBS, and pre-blocked for 1 hour with 3% Blocker-A (MSD). Captured protein in the assay plates were then washed and probed with 25 μL per well of 0.25 μg/ml rabbit monoclonal anti-pY705-STAT3 antibody (STAT3) or 0.18 μg/ml rabbit monoclonal Anti-pY641-STAT6 antibody (STAT6) in 1% Blocker-A for 1 hour at room temperature with shaking, then washed and probed with 25 ul per well of 1 ug/mi Sulfo-TAG Labeled Goat Anti-Rabbit Antibody (MSD) in 1% Blocker-A for 1 hour at room temperature with shaking. Assay plates were then washed and 150 μL of 1× Read Buffer-T (MSD) was added to each well prior to reading on an SQ120 MSD Plate Reader. Assay signal from each sample was subtracted by the signal from unstimulated control wells and normalized to DMSO control wells. IC50 values were calculated using Graph Pad Prism Dose-Response Nonlinear Regression with variable slope. For both pSTAT3 and pSTAT6 A=≤100 nM; B=>100-1000 nM; C=>1000-3000 nM; and D=>3 μM.

pSTAT3 (pY705-STAT3) = target: T2, pSTAT3 (pY705-STAT3) (Homo sapiens, UniProt P40763); assay: MSD-pSTAT-PBMC Assay (pSTAT3, IL-6 stimulated); format: cell-based; conditions: PBMC, compound 3 hrs, then 10 ng/mL IL-6 for 10 min; MSD pY705-STAT3; read-out: pSTAT3
T2 construct: host or cells: cryopreserved PBMC
T2 sequence (P40763 whole entry): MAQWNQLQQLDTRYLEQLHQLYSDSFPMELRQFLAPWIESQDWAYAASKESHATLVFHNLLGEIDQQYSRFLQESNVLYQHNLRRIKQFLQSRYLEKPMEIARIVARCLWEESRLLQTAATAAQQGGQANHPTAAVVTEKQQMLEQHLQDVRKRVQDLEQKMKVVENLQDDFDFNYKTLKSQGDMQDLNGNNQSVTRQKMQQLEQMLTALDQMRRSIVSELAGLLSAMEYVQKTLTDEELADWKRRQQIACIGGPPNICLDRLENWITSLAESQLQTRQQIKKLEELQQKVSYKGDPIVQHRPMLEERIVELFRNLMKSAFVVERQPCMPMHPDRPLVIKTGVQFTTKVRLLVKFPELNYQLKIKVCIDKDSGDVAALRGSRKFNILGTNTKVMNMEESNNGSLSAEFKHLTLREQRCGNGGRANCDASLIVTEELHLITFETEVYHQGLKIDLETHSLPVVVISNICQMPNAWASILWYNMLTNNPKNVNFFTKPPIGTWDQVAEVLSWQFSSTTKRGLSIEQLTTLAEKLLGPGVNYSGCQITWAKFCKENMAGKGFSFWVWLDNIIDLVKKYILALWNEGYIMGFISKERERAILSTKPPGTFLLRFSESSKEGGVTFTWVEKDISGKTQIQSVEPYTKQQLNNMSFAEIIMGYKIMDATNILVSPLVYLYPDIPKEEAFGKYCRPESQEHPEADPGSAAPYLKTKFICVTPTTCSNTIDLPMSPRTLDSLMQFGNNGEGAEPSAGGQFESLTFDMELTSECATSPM
Method in brief: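 Human PBMCs (50,000 cells/well for STAT3, 25,000 for STAT6) treated with compound 3 h, then stimulated 10 min with 10 ng/mL IL-6 or 1 ng/mL IL-4. Lysate pSTAT3 (pY705) or pSTAT6 (pY641) measured by MSD sandwich electrochemiluminescence. Signal minus unstimulated, normalized to DMSO; IC50 by variable-slope nonlinear regression.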

| IC50 (pSTAT6 (pY641-STAT6)) | IC50 (pSTAT3 (pY705-STAT3)) | Compound |
| --- | --- | --- |
| 0.1 to 1 µM | < 0.1 µM | CC(C)(C)C(=O)OCOP(=O)(OCOC(=O)C(C)(C)C)C(F)(F)c1ccc2sc(C(=O)N[C@H]3C[C@@H]4C[C@@H]4C[C@H]4CC[C@@H](C(=O)N5CC(c6ccccn6)C5)N4C3=O)cc2c1 [Compound 206, (((difluoro(2-(((3S,6S,7aS, 8aR,9aR)-5-oxo-3-(3-(pyridin-2-yl)azetidine-1-carbonyl)decahydro-1H-cyclopropa[d]pyrrolo[1,2-a]azocin-6-yl)carbamoyl)benzo[b]thiophen-5-yl)methyl)phosphoryl)bis(oxy)) bis(methylene) bis(2,2-dimethyl-propanoate)] |
| 1 to 3 µM | < 0.1 µM | CC(C)(C)C(=O)OCOP(=O)(OCOC(=O)C(C)(C)C)C(F)(F)c1ccc2sc(C(=O)N[C@H]3C[C@@H]4C[C@@H]4C[C@H]4CC[C@@H](C(=O)N5CC(C(=O)N6CCOCC6)C5)N4C3=O)cc2c1 [Compound 145, (((difluoro(2-(((3S,6S,7aS, 8aR,9aR)-3-(3-(morpholine-4-carbonyl)azetidine-1-carbonyl)-5-oxodecahydro-1H-cyclopropa [d]pyrrolo[1,2-a]azocin-6-yl)carbamoyl)benzo[b]thiophen-5-yl)methyl)phosphoryl)bis(oxy)) bis(methylene) bis(2,2-dimethyl-propanoate)] |
| > 3 µM | > 3 µM | CC(C)(CO)C(=O)SCCOP(=O)(Cc1ccc2sc(C(=O)N[C@H]3C[C@@H]4C[C@@H]4C[C@H]4CC[C@@H](C(=O)N5CC(n6ccnc6)C5)N4C3=O)cc2c1)OCCSC(=O)C(C)(C)CO [Compound 146, S,S′-(((((2-(((3S,6S,7aS, 8aR,9aR)-3-(3-(1H-imidazol-1-yl)azetidine-1-carbonyl)-5-oxodecahydro-1H-cyclopropa[d]pyrrolo[1,2-a]azocin-6-yl)carbamoyl)benzo[b]thiophen-5-yl)methyl)phosphoryl)bis(oxy))bis(ethane-2,1-diyl)) bis(3-hydroxy-2,2-dimethyl-propanethioate)] |
| 1 to 3 µM | < 0.1 µM | CCCC(=O)SCCOP(=O)(OCCSC(=O)C(C)(C)C)C(F)(F)c1ccc2sc(C(=O)N[C@H]3C[C@@H]4C[C@@H]4C[C@H]4CC[C@@H](C(=O)N5CC(C(=O)N6CCOCC6)C5)N4C3=O)cc2c1 (stereo partly drawn) [Compound 138, S-(2-(((difluoro(2-(((3S,6S,7aS, 8aR,9aR)-3-(3-(morpholine-4-carbonyl)azetidine-1-carbonyl)-5-oxodecahydro-1H-cyclopropa [d]pyrrolo[1,2-a]azocin-6-yl)carbamoyl)benzo [b]thiophen-5-yl)methyl)(2-(pivaloylthio)ethoxy)phosphoryl)oxy)ethyl) butanethioate] |
| > 3 µM | < 0.1 µM | CC(C)(C)C(=O)OCOP(=O)(OCOC(=O)C(C)(C)C)[C@@H](F)c1ccc2sc(C(=O)N[C@H]3C[C@@H]4C[C@@H]4C[C@H]4CC[C@@H](C(=O)N5CC(C(=O)N6CCOCC6)C5)N4C3=O)cc2c1 (single isomer, unassigned) [Compound 182, ((((S) or (R)-fluoro(2-(((3S,6S,7aS, 8aR,9aR)-3-(3-(morpholine-4-carbonyl)azetidine-1-carbonyl)-5-oxodecahydro-1H-cyclopropa[d]pyrrolo[1,2-a]azocin-6-yl)carbamoyl)benzo[b]thiophen-5-yl)methyl)phosphoryl)bis(oxy)) bis(methylene) bis(2,2-dimethyl-propanoate)] |
| > 3 µM | < 0.1 µM | CCCCC(=O)OCOP(=O)(OCOC(=O)CCCC)C(F)(F)c1ccc2sc(C(=O)N[C@H]3C[C@@H]4C[C@@H]4C[C@H]4CC[C@@H](C(=O)N5CC(C(=O)N6CCOCC6)C5)N4C3=O)cc2c1 [Example 4, (((difluoro(2-(((3S,6S,7aS,8aR,9aR)-3-(3-(morpholine-4-carbonyl)azetidine-1-carbonyl)-5-oxodecahydro-1H-cyclopropa[d]pyrrolo[1,2-a]azocin-6-yl)carbamoyl)benzo[b]thiophen-5-yl)methyl)phosphoryl)bis(oxy))bis(methylene) dipentanoate] |
| > 3 µM | 0.1 to 1 µM | CCCC(=O)SCCOP(=O)(Cc1ccc2sc(C(=O)N[C@H]3C[C@@H]4C[C@@H]4C[C@H]4CC[C@@H](C(=O)N5CC(n6ccnc6)C5)N4C3=O)cc2c1)OCCSC(=O)CCC [Compound 158, S,S′-(((((2-(((3S,6S,7aS, 8aR,9aR)-3-(3-(1H-imidazol-1-yl)azetidine-1-carbonyl)-5-oxodecahydro-1H-cyclopropa[d]pyrrolo[1,2-a]azocin-6-yl)carbamoyl)benzo[b]thiophen-5-yl)methyl)phosphoryl)bis(oxy))bis(ethane-2,1-diyl)) dibutanethioate] |

| Compound | IC50 (pSTAT6 (pY641-STAT6)) | IC50 (pSTAT3 (pY705-STAT3)) |
| --- | --- | --- |
| CC(C)(C)C(=O)SCCOP(=O)(Oc1ccccc1)C(F)(F)c1ccc2sc(C(=O)N[C@H]3C[C@H]4C[C@H]4C[C@H]4CC[C@@H](C(=O)N5CC(n6ccnc6)C5)N4C3=O)cc2c1 (stereo partly drawn) [Compound 195, S-(2-((((2-(((3S,6S,7aR, 8aS,9aR)-3-(3-(1H-imidazol-1-yl)azetidine-1-carbonyl)-5-oxodecahydro-1H-cyclopropa[d]pyrrolo[1,2-a]azocin-6-yl)carbamoyl)benzo[b]thiophen-5-yl)difluoromethyl) (phenoxy)phosphoryl)oxy)ethyl) 2,2-dimethyl-propanethioate] | > 3 µM | 0.1 to 1 µM |
| C[C@H](NP(=O)(Oc1ccccc1)C(F)(F)c1ccc2sc(C(=O)N[C@H]3C[C@@H]4C[C@@H]4C[C@H]4CC[C@@H](C(=O)N5CC(C(=O)N6CCOCC6)C5)N4C3=O)cc2c1)C(=O)OCc1ccccc1 (stereo partly drawn) [Compound 173, benzyl ((difluoro(2-(((3S,6S,7aS, 8aR,9aR)-3-(3-(morpholine-4-carbonyl)azetidine-1-carbonyl)-5-oxodecahydro-1H-cyclopropa[d]pyrrolo[1,2-a]azocin-6-yl)carbamoyl)benzo[b]thiophen-5-yl)methyl) (phenoxy)phosphoryl)-L-alaninate] | > 3 µM | 1 to 3 µM |
| CC(C)OC(=O)[C@H](C)NP(=O)(Cc1ccc2sc(C(=O)N[C@H]3C[C@@H]4C[C@@H]4C[C@H]4CC[C@@H](C(=O)N5CC(C(=O)N6CCOCC6)C5)N4C3=O)cc2c1)Oc1ccccc1 (stereo partly drawn) [Compound 154, isopropyl (((2-(((3S,6S,7aS, 8aR,9aR)-3-(3-(morpholine-4-carbonyl)azetidine-1-carbonyl)-5-oxodecahydro-1H-cyclopropa[d]pyrrolo[1,2-a]azocin-6-yl)carbamoyl)benzo[b]thiophen-5-yl)methyl) (phenoxy) (phosphoryl)-L-alaninate] | > 3 µM | 0.1 to 1 µM |
